± gives the standard deviation of the reports.
Row | SMILES | glass transition temperature [°C]
1 | *c1ccc(Oc2ccc(-c3nc4cc(Oc5ccc(NC(=O)c6ccc7c(c6)C(=O)N(c6ccc(C(c8ccc(N9C(=O)c%10ccc(C(=O)Nc%11ccc(Oc%12ccc%13nc(-c%14ccc([N+](=O)[O-])cc%14)c(*)nc%13c%12)cc%11)cc%10C9=O)cc8)(C(F)(F)F)C(F)(F)F)cc6)C7=O)cc5)ccc4nc3-c3ccc([N+](=O)[O-])cc3)cc2)cc1 (repeat unit) | 303.00
2 | *c1cccc(N2C(=O)c3cccc(Oc4ccc(S(=O)(=O)c5ccc(Oc6cccc7c6C(=O)N(*)C7=O)cc5)cc4)c3C2=O)c1 (repeat unit) | 266.00
3 | *CC(*)OC(=O)c1ccc(OC(=O)CCC)cc1 (repeat unit) | 61.00
4 | *CCc1ccc(CCNC(=O)CCCCCCCCCC(=O)N*)cc1 (repeat unit) | 96.00
5 | *C(=O)OCCCCCCCOC(=O)c1ccc(N2C(=O)c3ccc(*)cc3C2=O)cc1 (repeat unit) | 77.00
6 | *c1cc(CCCCCCOC(=O)COc2ccccc2)c(*)s1 (repeat unit) | 50.00
7 | *CC(O)COc1ccc(C(C)(CC)c2ccc(O*)cc2)cc1 (repeat unit) | 95.00
8 | *CCCCOC(=O)c1ccc([Si](C)(C)c2ccc(C(=O)O*)cc2)cc1 (repeat unit) | 42.00
9 | */C=C/C1CC(*)C2C(=O)N(CCCCCCC)C(=O)C12 (repeat unit) | 59.00
10 | *CCOCCOc1ccc(NC(=O)c2cccc(C(=O)Nc3ccc(O*)cc3)c2)cc1 (repeat unit) | 155.00
11 | */C=C/C1CCC(*)C1 (repeat unit) | 31.00
12 | *c1ccc(OCCCCCCOc2ccc(C3C4C(=O)N(c5ccc(N6C(=O)C7ON(C)C(*)C7C6=O)cc5)C(=O)C4ON3C)cc2)cc1 (repeat unit) | 52.00
13 | *c1ccc2c(c1)C(=O)N(c1ccc(Oc3c(C(C)(C)C)cc(-c4ccc(N5C(=O)c6ccc(C(*)(C(F)(F)F)C(F)(F)F)cc6C5=O)cc4)cc3C(C)(C)C)cc1)C2=O (repeat unit) | 355.00
14 | *c1ccc(Cc2ccc(N3C(=O)c4ccc(Oc5ccc6c(c5)C(=O)N(*)C6=O)cc4C3=O)cc2)cc1 (repeat unit) | 271.00
15 | *c1ccc(Oc2cc(C(C)(C)C)c(Oc3ccc(N4C(=O)c5ccc(Oc6ccc7c(c6)C(=O)N(*)C7=O)cc5C4=O)cc3)cc2C(C)(C)C)cc1 (repeat unit) | 242.00
16 | *CC(*)c1ccccc1Cl (repeat unit) [Poly(2-chlorostyrene)] | 118.92 ± 2.1
17 | */C=C/CC* (repeat unit) [1,4-polybutadiene] | -91.00 ± 5
18 | *CC(*)(Cl)C(=O)OCCC(F)(F)C(F)(F)C(F)(F)C(F)(F)C(F)(F)C(F)(F)C(F)(F)C(F)(F)F (repeat unit) | 61.00
19 | *CC(*)C(=O)Oc1cccc2ccccc12 (repeat unit) | 85.00
20 | *CCCOC(=O)CCCCC(=O)O* (repeat unit) | -55.00
21 | *C[Si](*)(CCC)CCC (repeat unit) | -41.00
22 | *c1ccc(-c2nc3cc(Oc4ccc(NC(=O)c5cc(C(=O)Nc6ccc(Oc7ccc8nc(-c9ccccc9)c(*)nc8c7)cc6)cc(N6C(=O)c7ccccc7C6=O)c5)cc4)ccc3nc2-c2ccccc2)cc1 (repeat unit) | 302.00
23 | *C(=O)Nc1ccc(Oc2ccccc2-c2ccccc2Oc2ccc(NC(=O)c3ccc4c(c3)C(=O)N(c3ccc(Oc5ccc(-c6ccc(Oc7ccc(N8C(=O)c9ccc(*)cc9C8=O)cc7)cc6)cc5)cc3)C4=O)cc2)cc1 (repeat unit) | 239.00
24 | *C(=O)Nc1cc(C(c2cc(C)c(C)c(NC(=O)c3ccc4c(c3)C(=O)N(c3cccc5c(N6C(=O)c7ccc(*)cc7C6=O)cccc35)C4=O)c2)(C(F)(F)F)C(F)(F)F)cc(C)c1C (repeat unit) | 250.00

— the PolyMetriX glass transition set
